Reference: PMC5078989, “Targeted inhibition of the COP9 signalosome for treatment of cancer” (Nature Communications, 2016)

Experiments:
[1] = Pharmacokinetics in mice (single i.v. and oral dose); settings: mouse, in vivo, mice (n=3), single i.v. 1 mg per kg and single oral 3 mg per kg dose; for clearance: read-out: Cl (clearance); for bioavailability: read-out: F (absolute bioavailability); for half-life: read-out: t1/2 (half-life)
human MMP9 = target: T1, human MMP9 (Homo sapiens, UniProt P14780); assay: Selectivity assay MMP9; assay type: biochemical
T1 construct: human MMP9 (Uniprot P14780), amino acids 1–707; made in house; host or cells: stably transfected 293 cells
Method: (§1) All biochemical assays were performed at room temperature in 384-well plates in a total volume of 25.25 μl per well. Test compounds were dissolved in 90% (v/v) DMSO/water. For the assays, 250 nl of compound solution was added per well, followed by addition of 12.5 μl protease solution. After 70 min of pre-incubation at room temperature, the reactions were started by addition of 12.5 μl substrate solution and followed either by measuring fluorescence intensity (rhodamine 110-based substrates) or by fluorescence lifetime (PT14-based substrates). The effect of compound on enzymatic activity was obtained from the linear part of the progress curves and determined after 1 h (t=60 min). The final compound concentrations ranged from 100 μM to 1 nM.
(§2) Matrix metalloproteinases. Human MMP1 (Uniprot P03956), amino acids 1–469, expressed in and purified from stable transfected C127 cells; human MMP2 (Uniprot P08253), amino acids 1–660, expressed in and purified from insect cells (baculovirus expression system); human MMP8 (Uniprot P22894), amino acids 100–262, expressed in and purified from E. coli; human MMP9 (Uniprot P14780), amino acids 1–707, expressed in and purified from stable transfected 293 cells; human MMP12 (Uniprot P39900), amino acids 101–268, expressed in and purified from E. coli; human MMP13 (Uniprot P45452), amino acids 103–274, expressed in and purified from E. coli; human MMP14 (Uniprot P50281), amino acids 112–284, expressed in and purified from E. coli; human ADAM17 (Uniprot P78536), amino acids 1–670, expressed in and purified from insect cells (baculovirus expression system); substrate: Ac-C(PT14)-[…]-NH2 purchased from Biosyntan (product number 8069); enzyme concentrations: 3 nM (MMP1), 1 nM (MMP2), 3 nM (MMP8), 0.1 nM (MMP9), 0.5 nM (MMP12), 0.13 nM (MMP13), 0.005 nM (MMP14), 30 nM (ADAM17); substrate concentration: 0.8 μM; assay buffer: 100 mM Tris, pH 7.4, 100 mM NaCl, 10 mM CaCl2, 10 μM ZnCl2, 0.075% (v/v) Brij35.

CSN5 = target: T2, CSN5 (Homo sapiens, UniProt Q92905); assay: CSN5 activity assay (CSN deneddylation, fluorescence polarization); assay type: biochemical; settings: JAMM domain protease; means±s.d.
T2 construct: made in house; host or cells: Sf21 insect cells, co-infection of separate baculoviruses
Method: Unlike the majority of proteases, it is not active as an individual subunit or as an isolated catalytic domain. […] For the identification of CSN inhibitors, we therefore conducted a high-throughput screening campaign using a biochemical assay with recombinant CSN and a fluorescence-labelled and NEDD8-modified CRL substrate[30][40] (PT22-NEDD8-SCF^Skp2; Supplementary Table 1).
The potency of CSN5 inhibitors was determined in a CSN activity assay using changes in fluorescence polarization as the readout. Reactions were carried out at room temperature in 384-well plates. […] The effect of compound on enzymatic activity was determined from the linear part of the progression curves by an end-point measurement of the fluorescence polarization at 590 nm after excitation at 540 nm using a PHERAstar plate reader (BMG LABTECH GmbH). IC50 values were calculated from the plot of percentage of inhibition versus inhibitor concentration using the non-linear regression analysis software Origin 7.5SR6 (OriginLab Corp.).

human MMP12 = target: T3, human MMP12 (Homo sapiens, UniProt P39900); assay: Selectivity assay MMP12; assay type: biochemical
T3 construct: human MMP12 (Uniprot P39900), amino acids 101–268; made in house; host or cells: E. coli
Method: as §1, §2

human ADAM17 = target: T4, human ADAM17 (Homo sapiens, UniProt P78536); assay: Selectivity assay ADAM17; assay type: biochemical
T4 construct: human ADAM17 (Uniprot P78536), amino acids 1–670; made in house; host or cells: insect cells (baculovirus)
Method: as §1, §2

CYP3A4 = CYP3A4 (Homo sapiens, UniProt P08684); assay: CYP3A4 inhibition; assay type: in vitro ADME
Source text: Table 2 CYP3A4 inhibition and key pharmacokinetic parameters in mice of CSN5 inhibitors. | column: CSN5i-2; CSN5i-3

human MMP14 = target: T5, human MMP14 (Homo sapiens, UniProt P50281); assay: Selectivity assay MMP14; assay type: biochemical
T5 construct: human MMP14 (Uniprot P50281), amino acids 112–284; made in house; host or cells: E. coli
Method: as §1, §2

SU-DHL-1 cells = assay: Cell viability assay (CellTiter-Glo), SU-DHL-1; assay type: cell-based, human
Method: Cells were maintained in a humidified incubator at 37 °C and 5% CO2. […] All cells were negatively tested for mycoplasma contamination either by the vendor or in house. […] If not stated otherwise, cells were harvested after incubation for 16 h and subjected to SDS-PAGE and western blotting. The RNA interference experiment was performed with CSN5 stealth siRNA (#HSS116986) and stealth negative control siRNA (#12935-400) (Invitrogen), which were transfected at 10 nM into HCT116 cells using […] (Qiagen) according to the manufacturer's protocols. Seventy-two hours after transfection, cells were harvested and subjected to SDS-PAGE and western blotting (see Supplementary Fig. 7 for all western blottings performed). A standardized CellTiter-Glo Assay (Promega #G7570) based on the quantification of ATP was applied according to the manufacturer's protocol to measure the amount of viable cells in culture. In brief, cells were seeded into 384-well plates at optimal density for each cell line. After 4 h, compounds were added at different concentrations in growth medium and incubated for another 72 h in a humidifying chamber at 37 °C and 5% CO2. Eventually, equal amounts of CellTiter-Glo reagent were added directly to the cells, incubated for 15 min and luminescence was recorded using PHERAstar plate reader (BMG LABTECH GmbH).

T4 sequence (P78536 18-670): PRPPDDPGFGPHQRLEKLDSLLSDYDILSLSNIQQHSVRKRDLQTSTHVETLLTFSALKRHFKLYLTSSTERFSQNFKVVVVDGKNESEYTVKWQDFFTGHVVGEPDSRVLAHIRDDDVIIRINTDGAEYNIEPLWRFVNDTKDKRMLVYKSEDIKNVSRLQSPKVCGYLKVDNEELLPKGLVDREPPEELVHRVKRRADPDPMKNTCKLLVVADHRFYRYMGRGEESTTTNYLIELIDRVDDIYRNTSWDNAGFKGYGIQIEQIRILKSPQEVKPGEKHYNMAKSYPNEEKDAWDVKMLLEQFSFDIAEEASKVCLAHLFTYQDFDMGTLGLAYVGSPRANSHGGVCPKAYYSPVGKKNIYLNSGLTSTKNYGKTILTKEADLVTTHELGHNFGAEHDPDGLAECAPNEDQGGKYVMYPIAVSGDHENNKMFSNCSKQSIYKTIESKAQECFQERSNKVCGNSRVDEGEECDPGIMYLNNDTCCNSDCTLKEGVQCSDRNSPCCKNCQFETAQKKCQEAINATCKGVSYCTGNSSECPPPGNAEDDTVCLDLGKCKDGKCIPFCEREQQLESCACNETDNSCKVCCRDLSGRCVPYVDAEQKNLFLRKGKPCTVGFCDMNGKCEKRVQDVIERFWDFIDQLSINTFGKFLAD
T3 sequence (P39900 101-268): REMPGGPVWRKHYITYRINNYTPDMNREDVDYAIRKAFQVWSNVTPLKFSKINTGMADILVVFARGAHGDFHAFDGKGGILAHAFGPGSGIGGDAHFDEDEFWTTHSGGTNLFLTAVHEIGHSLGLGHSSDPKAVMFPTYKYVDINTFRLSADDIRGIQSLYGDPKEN
T1 sequence (P14780 20-707): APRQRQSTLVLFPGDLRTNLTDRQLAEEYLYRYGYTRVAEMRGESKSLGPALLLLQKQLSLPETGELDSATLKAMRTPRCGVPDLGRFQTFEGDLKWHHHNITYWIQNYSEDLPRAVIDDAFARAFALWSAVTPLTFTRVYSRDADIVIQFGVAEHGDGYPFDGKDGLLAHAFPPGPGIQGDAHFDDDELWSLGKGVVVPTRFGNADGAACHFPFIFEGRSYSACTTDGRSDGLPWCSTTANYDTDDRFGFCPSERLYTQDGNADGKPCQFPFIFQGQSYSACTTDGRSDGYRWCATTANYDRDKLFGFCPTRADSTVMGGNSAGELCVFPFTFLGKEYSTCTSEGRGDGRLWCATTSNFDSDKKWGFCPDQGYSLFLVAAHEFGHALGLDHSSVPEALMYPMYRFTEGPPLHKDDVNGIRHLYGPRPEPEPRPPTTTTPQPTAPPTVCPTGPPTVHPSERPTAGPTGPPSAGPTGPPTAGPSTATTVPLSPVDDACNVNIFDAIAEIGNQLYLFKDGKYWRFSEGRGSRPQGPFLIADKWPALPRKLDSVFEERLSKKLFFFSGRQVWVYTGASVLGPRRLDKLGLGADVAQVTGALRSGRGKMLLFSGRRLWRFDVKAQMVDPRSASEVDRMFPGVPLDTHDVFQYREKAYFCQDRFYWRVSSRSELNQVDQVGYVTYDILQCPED
CYP3A4, sequence (P08684 whole entry, species assumed): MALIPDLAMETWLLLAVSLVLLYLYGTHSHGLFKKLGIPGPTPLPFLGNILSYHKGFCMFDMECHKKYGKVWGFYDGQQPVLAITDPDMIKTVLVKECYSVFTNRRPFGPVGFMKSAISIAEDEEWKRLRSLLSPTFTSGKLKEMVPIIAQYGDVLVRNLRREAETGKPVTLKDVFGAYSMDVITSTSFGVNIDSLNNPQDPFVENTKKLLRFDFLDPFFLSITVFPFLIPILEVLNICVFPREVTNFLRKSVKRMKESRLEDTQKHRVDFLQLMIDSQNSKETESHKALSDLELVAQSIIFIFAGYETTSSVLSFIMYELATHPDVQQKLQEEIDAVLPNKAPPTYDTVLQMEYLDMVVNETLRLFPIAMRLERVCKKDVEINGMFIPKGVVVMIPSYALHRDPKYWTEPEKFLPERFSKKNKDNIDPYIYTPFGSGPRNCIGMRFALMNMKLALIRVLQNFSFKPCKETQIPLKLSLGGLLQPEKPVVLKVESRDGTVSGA

COCc1ccccc1NCc1ccc([C@H]2[C@@H](O)CCCc3cncn32)c(-c2ccccc2Cl)c1 [CSN5i-2, (5S,6S)-5-(2′-chloro-5-(((2-(methoxymethyl)phenyl)amino)methyl)-[1,1′-biphenyl]-2-yl)-6,7,8,9-tetrahydro-5H-imidazo[1,5-a]azepin-6-ol]
clearance [1]: 4.92 ± 1.5 L/h/kg
bioavailability [1]: < 1%
half-life [1]: 0.6 ± 0.0167 h
IC50 (human MMP9): 3.8 ± 0.4 µM
IC50 (CSN5): 0.002 ± 0.001 µM
IC50 (human MMP12): > 100 µM
IC50 (human ADAM17): > 100 µM
IC50 (CYP3A4): < 0.5 µM
IC50 (human MMP14): 15.4 ± 0.02 µM

COCc1ccccc1NCc1ccc([C@@H]2[C@H](O)CCCc3cncn32)c(-c2ccccc2Cl)c1 [CSN5i-2e, (5R,6R)-5-(2′-chloro-5-(((2-(methoxymethyl)phenyl)amino)methyl)-[1,1′-biphenyl]-2-yl)-6,7,8,9-tetrahydro-5H-imidazo[1,5-a]azepin-6-ol]
IC50 (human MMP9): 3.2 ± 0.2 µM
IC50 (CSN5): 2.1 ± 1.8 µM
IC50 (human MMP12): > 100 µM
IC50 (human ADAM17): > 100 µM
IC50 (human MMP14): 11 ± 1 µM

CC(C)n1nc(C(F)F)cc1C(=O)Nc1ccc([C@H]2[C@@H](O)CCCc3cncn32)c(-c2ccccc2)c1 [CSN5i-3, 3-(Difluoromethyl)-N-(6-((5S,6S)-6-hydroxy-6,7,8,9-tetrahydro-5H-imidazo[1,5-a]azepin-5-yl)-[1,1′-biphenyl]-3-yl)-1-isopropyl-1H-pyrazole-5-carboxamide]
clearance [1]: 2.16 ± 0.18 L/h/kg
bioavailability [1]: 33 ± 2%
half-life [1]: 2.5 ± 0.3 h
EC50 (SU-DHL-1 cells; Homo sapiens, SU-DHL-1, 72 h, read-out: EC50 cell viability): 0.013 µM
AMAX (SU-DHL-1 cells; SU-DHL-1 in vitro, 72 h): ≤ −95%
IC50 (human MMP9): 7.4 ± 2 µM
IC50 (human MMP12): > 100 µM
IC50 (human ADAM17): > 100 µM
IC50 (CYP3A4): 6.8 ± 1.8 µM
IC50 (human MMP14): 4.6 ± 0.5 µM
